Data reported in patent US20120121546A1, “Method of Producing Progenitor Cells from Differentiated Cells” (priority 2009, published 2012).

Tested on: human dermal fibroblasts
Test: Adipogenesis (Oil Red O) of fibroblasts detached with trypsin and seeded at high density
Assay type: cell-based
Protocol: After incubation for about 12-21 days in adipogenic medium, the medium is removed, and cells are fixed in 10% formaldehyde solution in aqueous phosphate buffer for at least 1 hour. Cells are then washed with 60% isopropanol and stained with a working solution of Oil Red 0 solution (in 60% isopropanol, see below for preparation) for 10 minutes. The cells are then washed several times with water, and destained in 100% isopropanol for 15 minutes. The destain solution is removed and the optical density of the solution is measured at 500-510 nm.
In a this set of experiments for producing cells having the ability to differentiate into different cell types, fibroblasts are either incubated in media without trypsin or containing trypsin and then cultured at different lengths of time under high density conditions of about 100,000 cells per well/plate or at about 3703.7 cells per mm^2 surface area of the well/plate before adherence of the cells in a high density plating medium. The cells produced by this method are then tested for their ability to differentiate into adipocytes, as determined by the accumulation of fat.
Fresh human dermal fibroblasts derived from adult skin or from foreskin are purchased from PromoCell® (Banksia Scientific Company, QLD). […]
Test cells are recovered from culture and seeded at concentrations of about 100,000 cells per well/plate or at about 3703.7 cells per mm^2 surface area of the well/plate before attachment of the cells to the plate/well directly in 200 to 400 μl high density plating medium (e.g., Medium 199 containing 170 nM insulin, 0.5 mM 3-isobutyl-1-methylxanthine, 0.2 mM indomethacin, 1 μM dexamethasone, and 15% rabbit serum) for a time and under conditions sufficient for an optimum number of progenitor cells to be produced e.g., for up to about 24 hours or until adherence is achieved, i.e., a shorter time than required for cells to become adherent and/or as determined by analysis of cell marker expression and/or by the ability of aliquots of cells to subsequently undergo differentiation. […]

Substance: trypsin
- ability to differentiate into adipocytes (detached with 0.12% trypsin, seeded at about 100,000 cells per well in high density plating medium before adherence, then adipogenic medium, cells without trypsin gave no detectable adipocytes): capable of differentiating into adipocytes
- optimum time in adipogenic medium for assuming ability to differentiate into adipocytes (numbers of fat-producing cells assayed from day 10 to day 21 in adipogenic medium): 10 to 14 days
- time from incubation with trypsin to high density seeding at which adipocytes are apparent (seeding directly into high density plating medium): ≤ 6 h
